#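 Following 48 hours of exposure in 96-well plates, responses at five concentrations were used to interpolate endpoints linearly. At the GI50, growth is halved. TGI denotes the concentration required for complete inhibition of growth.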
# Columns and labels:
# Assay in all cases: NCI tumour cell line growth inhibition, 48 h
# 786-0 renal = tested on: 786-0 renal
# A498 renal = tested on: A498 renal
# ACHN renal = tested on: ACHN renal
# BT-549 breast = tested on: BT-549 breast
# CAKI-1 renal = tested on: CAKI-1 renal
# CCRF-CEM leukemia = tested on: CCRF-CEM leukemia
# COLO 205 colon = tested on: COLO 205 colon
# DU-145 prostate = tested on: DU-145 prostate
# HCC-2998 colon = tested on: HCC-2998 colon
# HCT-116 colon = tested on: HCT-116 colon
# HCT-15 colon = tested on: HCT-15 colon
# HL-60(TB) leukemia = tested on: HL-60(TB) leukemia
# HOP-62 NSCLC = tested on: HOP-62 NSCLC
# HOP-92 NSCLC = tested on: HOP-92 NSCLC
# HS 578T breast = tested on: HS 578T breast
# HT29 colon = tested on: HT29 colon
# IGROV1 ovarian = tested on: IGROV1 ovarian
# K-562 leukemia = tested on: K-562 leukemia
# KM12 colon = tested on: KM12 colon
# LOX IMVI melanoma = tested on: LOX IMVI melanoma
# M14 melanoma = tested on: M14 melanoma
# MALME-3M melanoma = tested on: MALME-3M melanoma
# MCF7 breast = tested on: MCF7 breast
# MDA-MB-435 = tested on: MDA-MB-435
# MDA-MB-468 breast = tested on: MDA-MB-468 breast
# MOLT-4 leukemia = tested on: MOLT-4 leukemia
smiles,measurement,setting,value
COc1ccc2cc([C@H](C)C(=O)[Se]CCC#N)ccc2c1,GI50,786-0 renal,2.12 µM
same,TGI,786-0 renal,3.72 µM
same,GI50,A498 renal,1.78 µM
same,TGI,A498 renal,3.27 µM
same,GI50,ACHN renal,2.42 µM
same,TGI,ACHN renal,5.42 µM
same,GI50,BT-549 breast,1.61 µM
same,TGI,BT-549 breast,3.12 µM
same,GI50,CAKI-1 renal,1.88 µM
same,TGI,CAKI-1 renal,3.32 µM
same,GI50,CCRF-CEM leukemia,3.06 µM
same,TGI,CCRF-CEM leukemia,56.8 µM
same,GI50,COLO 205 colon,5.81 µM
same,TGI,COLO 205 colon,23.1 µM
same,GI50,DU-145 prostate,2.66 µM
same,TGI,DU-145 prostate,8.51 µM
same,GI50,HCC-2998 colon,7.06 µM
same,TGI,HCC-2998 colon,22.6 µM
same,GI50,HCT-116 colon,1.79 µM
same,TGI,HCT-116 colon,3.37 µM
same,GI50,HCT-15 colon,2 µM
same,TGI,HCT-15 colon,4.53 µM
same,GI50,HL-60(TB) leukemia,1.38 µM
same,TGI,HL-60(TB) leukemia,4.24 µM
same,GI50,HOP-62 NSCLC,2.16 µM
same,TGI,HOP-62 NSCLC,3.94 µM
same,GI50,HOP-92 NSCLC,1.76 µM
same,TGI,HOP-92 NSCLC,3.48 µM
same,GI50,HS 578T breast,2.07 µM
same,TGI,HS 578T breast,7.29 µM
same,GI50,HT29 colon,2.02 µM
same,TGI,HT29 colon,4.82 µM
same,GI50,IGROV1 ovarian,2.23 µM
same,TGI,IGROV1 ovarian,4.98 µM
same,GI50,K-562 leukemia,3.78 µM
same,TGI,K-562 leukemia,23.6 µM
same,GI50,KM12 colon,5.63 µM
same,TGI,KM12 colon,50.9 µM
same,GI50,LOX IMVI melanoma,1.89 µM
same,TGI,LOX IMVI melanoma,4.97 µM
same,GI50,M14 melanoma,1.48 µM
same,TGI,M14 melanoma,3.44 µM
same,GI50,MALME-3M melanoma,1.64 µM
same,TGI,MALME-3M melanoma,3.39 µM
same,GI50,MCF7 breast,2.22 µM
same,TGI,MCF7 breast,10 µM
same,GI50,MDA-MB-435,1.79 µM
same,TGI,MDA-MB-435,3.73 µM
same,GI50,MDA-MB-468 breast,1.96 µM
same,TGI,MDA-MB-468 breast,4.41 µM
same,GI50,MOLT-4 leukemia,2.62 µM
same,TGI,MOLT-4 leukemia,13 µM

# From PubChem BioAssay (NCI)
